The results in this text go back to patent US9403827B2, “Substituted purinone compounds” (NOVARTIS AG, priority 2013, dated 2016).

Holding throughout (format): binding
Test [1] deals with human MDM4 protein (amino acids 2-185) (Homo sapiens (Human), UniProt O15151). In words: TR-FRET p53-MDM4 Assay 1. The conditions noted are these: 2.5 nM MDM4-biotinylated, 10 nM Cy5-p53 peptide. On the procedure:
(§1) Time Resolved Fluorescence Energy Transfer (TR-FRET) Assay
(§2) The inhibition of p53-MDM2 and p53-MDM4 interactions is measured by time resolved fluorescence energy transfer (TR-FRET). Fluorescence energy transfer (or Foerster resonance energy transfer) describes an energy transfer between donor and acceptor fluorescent molecules. For this assay, human MDM2 protein (amino acids 2-188) and human MDM4 protein (amino acids 2-185), tagged with a C-terminal biotin moiety, are used in combination with a Europium labeled streptavidin (Perkin Elmer, Inc., Waltham, Mass., USA) serving as the donor fluorophore. The p53 derived, Cy5 labeled peptide Cy5-TFSDLWKLL (p53 aa18-26) is the energy acceptor. Upon excitation of the donor molecule at 340 nm, binding interaction between MDM2 or MDM4 and the p53 peptide induces energy transfer and enhanced response at the acceptor emission wavelength at 665 nm.
(§3) Disruption of the formation of the p53-MDM2 or p53-MDM4 complex due to an inhibitor molecule binding to the p53 binding site of MDM2 or MDM4 results in increased donor emission at 620 nm. The ratiometric FRET assay readout is calculated from the raw data of the two distinct fluorescence signals measured in time resolved mode (fluorescence 665 nm/fluorescence 620 nm×1000).
(§4) The test is performed in white 384-well plates (Greiner Bio-One, reference 781207) in a total volume of 60 μL by adding 1 μL of compounds tested at different concentrations diluted in 100% DMSO (1.7% final DMSO concentration) in reaction buffer (PBS, 125 mM NaCl, 0.001% Novexin (consists of carbohydrate polymers), designed to increase the solubility and stability of proteins; Expedeon Ltd., Cambridgeshire, United Kingdom), 0.01% Gelatin, 0.01% 0.2%, Pluronic F-127 (block copolymer from ethylenoxide and propyleneoxide), 1 mM DTT). After addition of 1.25 nM MDM2-biotinylated or 2.5 nM MDM4-biotinylated (internal preparations, both MDM2 and MDM4 are biotinylated at the C-terminal of the peptide construct), and 0.625 nM Europium labeled streptavidin (Perkin Elmer), the solution is pre-incubated for 15 minutes at room temperature, then 10 nM Cy5-p53 peptide (internal preparation, the Cy5 dye is directly bound to the N-terminal part of p53 peptide construct) is added before an incubation at room temperature for 15 minutes prior to reading the plate. For measurement of samples, a Victor II microplate reader (Perkin Elmer) is used with the following settings: Excitation 340 nm, Emission Donor 620 nm and Emission Acceptor 665 nm. IC50 values are calculated by curve fitting using XLfit. If not specified, reagents are purchased from Sigma-Aldrich Chemie GmBH, Buchs, Switzerland.
(§5) This assay was used to evaluate compounds displaying inhibition of p53-MDM2 interaction and p53-MDM4 interaction at IC50s of 0.005 to 50 μM (p53-MDM2 Assay 1 and p53-MDM4 Assay 1, respectively). For selected compounds displaying IC50s between […] on MDM2, a slightly modified assay is used with the following adaptations: 0.1 nM MDM2, 0.1 nM Europium labeled streptavidin and Tecan genios Pro is used as a microplate reader for the fluorescence measurements (p53-MDM2 Assay 2).
On the technique in general: In TR-FRET formats the signal depends on donor and acceptor labels being close together.

Test [2] concerns the target T1, human MDM2 protein (amino acids 2-188) (Homo sapiens (Human), UniProt Q00987). Briefly: TR-FRET p53-MDM2 Assay 1. The settings on record: 1.25 nM MDM2-biotinylated, 10 nM Cy5-p53 peptide. Here is the method: as §1, §2, §3, §4, §5
Test [3] concerns the target T1, human MDM2 protein (amino acids 2-188). In words: TR-FRET p53-MDM2 Assay 2 (modified: 0.1 nM MDM2). The settings on record: 0.1 nM MDM2, 0.1 nM Europium labeled streptavidin, Tecan genios Pro reader. Here is the method:
as §1, §2, §3, §4, §5

As usually defined, the IC50 is the concentration that gives 50% inhibition.

human MDM4 protein (amino acids 2-185), sequence (O15151 2-185): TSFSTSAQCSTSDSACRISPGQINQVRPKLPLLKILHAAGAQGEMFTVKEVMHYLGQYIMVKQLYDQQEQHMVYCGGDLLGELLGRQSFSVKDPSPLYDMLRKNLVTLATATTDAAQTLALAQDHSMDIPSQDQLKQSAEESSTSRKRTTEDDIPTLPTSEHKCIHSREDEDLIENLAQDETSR
T1 sequence (Q00987 2-188): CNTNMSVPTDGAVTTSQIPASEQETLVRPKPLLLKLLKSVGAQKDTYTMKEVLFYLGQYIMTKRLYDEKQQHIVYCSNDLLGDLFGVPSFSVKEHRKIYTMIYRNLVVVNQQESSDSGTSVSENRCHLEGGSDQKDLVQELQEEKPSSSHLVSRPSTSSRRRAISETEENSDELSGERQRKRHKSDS

Consider `COc1ccccc1-c1nc2c(n1C(C)C)C(c1ccc(Cl)cc1)N(c1cccc(Cl)c1F)C(=O)N2` (stereo not shown) [Example 1, 1-(3-Chloro-2-fluoro-phenyl)-6-(4-chloro-phenyl)-7-isopropyl-8-(2-methoxy-phenyl)-1,3,6,7-tetrahydro-purin-2-one], for which the results for the IC50 in test [1], in test [2] and in test [3] were 1.51 µM, 0.002 µM and 0.882 nM, respectively.

Consider `COc1ccccc1-c1nc2c(n1C(C)C)C(c1ccc(Cl)cc1C)N(c1cccc(Cl)c1F)C(=O)N2` (stereo not shown) [Example 2, 1-(3-Chloro-2-fluoro-phenyl)-6-(4-chloro-2-methyl-phenyl)-7-isopropyl-8-(2-methoxy-phenyl)-1,3,6,7-tetrahydro-purin-2-one], for which the figures for the half-inhibitory concentration (IC50) in test [1], in test [2] and in test [3] were 2.13 µM, 0.0021 µM and 0.779 nM, respectively.

For the molecule `COc1ccncc1-c1nc2c(n1C(C)C)C(c1ccc(Cl)cc1C)N(c1cc(Cl)ccc1C)C(=O)N2` (stereo not shown) [Example 4, 6-(4-Chloro-2-methylphenyl)-1-(5-chloro-2-methylphenyl)-7-isopropyl-8-(4-methoxypyridin-3-yl)-6,7-dihydro-1H-purin-2(3H)-one], the 50% inhibitory concentration (IC50) in test [1] was determined as 16.7 µM; in test [2] it was 0.0031 µM.

With `COc1ccncc1-c1nc2c(n1C(C)C)C(c1ccc(Cl)cc1)N(c1cccc(Cl)c1F)C(=O)N2` (stereo not shown) [Example 6, 1-(3-Chloro-2-fluorophenyl)-6-(4-chlorophenyl)-7-isopropyl-8-(4-methoxypyridin-3-yl)-6,7-dihydro-1H-purin-2(3H)-one], the IC50 in test [1] stood at 14 µM; in test [2], 0.0085 µM.
